Data published in ChEMBL document CHEMBL3098121, “Dactyloditerpenol acetate, a new prenylbisabolane-type diterpene from Aplysia dactylomela with significant in vitro anti-neuroinflammatory activity” (Bioorg Med Chem Lett, 2014).
Converted amounts (≈) assume the structure as drawn.

Tests used:
[1] = Antineuroinflammatory activity in rat brain neonatal microglia; format: functional, tissue-based
[2] = Cytotoxicity against rat brain neonatal microglia by LDH release assay
[3] = Antineuroinflammatory activity in rat brain neonatal microglia assessed as inhibition of LPS-induced superoxide anion generation; format: functional, tissue-based
[4] = Antineuroinflammatory activity in rat brain neonatal microglia assessed as inhibition of LPS-induced TXB2 generation; format: functional, tissue-based
[5] = test system: Mycobacterium tuberculosis; test: Antimycobacterial activity against Mycobacterium tuberculosis H37Rv; format: functional
A2058 = test: Cytotoxicity against human A2058 cells; format: functional
DU-145 = test: Cytotoxicity against human DU145 cells; format: functional

## CC(=O)Oc1ccccc1C(=O)O [ASPIRIN]
[1]; read-out: IC50
  IC50: 3.2 nM

## CC(C(=O)O)c1ccc(-c2ccccc2)c(F)c1 (stereo not drawn) [FLURBIPROFEN]
[1]; read-out: IC50(app)
  IC50: 100 nM

## CC(=O)O[C@@H](CC[C@@H](C)[C@@H]1CCC(C)=C[C@H]1O)[C@](C)(O)CCC=C(C)C
[2]
  IC50: > 10000 nM
[3]
  IC50: 1000 nM
[4]
  IC50: 400 nM
[5]
  MIC: 59.4 µg/mL (≈ 162 µM)
A2058
  Activity: 67%
DU-145
  Activity: 77%
